From PubChem BioAssay (NCI)
Several values for one entry are separate records, joined by “and”; a condition that tells them apart may be missing. Equal entries are not always repeated.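 Compound exposure: 48 hours, 5 concentrations, 96-well plates. GI50: concentration for 50% inhibition of growth. The concentration for full growth arrest is given as TGI.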

Assays:
Assay in all cases: NCI-60 cell line screen, 48 h
HT29 colon = tested on: HT29 colon
EKVX NSCLC = tested on: EKVX NSCLC
T-47D breast = tested on: T-47D breast
SNB-75 CNS = tested on: SNB-75 CNS
SK-MEL-5 melanoma = tested on: SK-MEL-5 melanoma
NCI-H23 lung = tested on: NCI-H23 lung
M14 melanoma = tested on: M14 melanoma
MCF7 breast = tested on: MCF7 breast
COLO 205 colon = tested on: COLO 205 colon
HL-60(TB) leukemia = tested on: HL-60(TB) leukemia

Row | SMILES | GI50 (HT29 colon) | TGI (HT29 colon) | GI50 (EKVX NSCLC) | TGI (EKVX NSCLC) | GI50 (T-47D breast) | TGI (T-47D breast) | GI50 (SNB-75 CNS) | TGI (SNB-75 CNS) | GI50 (SK-MEL-5 melanoma) | TGI (SK-MEL-5 melanoma) | GI50 (NCI-H23 lung) | TGI (NCI-H23 lung) | GI50 (M14 melanoma) | TGI (M14 melanoma) | GI50 (MCF7 breast) | TGI (MCF7 breast) | GI50 (COLO 205 colon) | TGI (COLO 205 colon) | GI50 (HL-60(TB) leukemia) | TGI (HL-60(TB) leukemia)
1 | Fc1ccc2c(c1)C1=C(CO2)C(c2ccc(Cl)cc2)NC(=S)N1 (stereo not given) | 51.3 µM | > 100 µM | 37.4 µM | > 100 µM | 63.2 µM | > 100 µM | 96.8 µM | > 100 µM | 19.2 µM | 49.5 µM | 26 µM | 58.5 µM | 24 µM | 57.5 µM | 18.1 µM | 42.2 µM | 31.3 µM | 90.9 µM | 31.6 µM | > 100 µM
2 | NC(=O)c1ccccc1NC(=O)c1ccccc1Cl | > 100 µM | > 100 µM | > 100 µM | > 100 µM | > 100 µM | > 100 µM | > 100 µM | > 100 µM | > 100 µM | > 100 µM | > 100 µM | > 100 µM | > 100 µM | > 100 µM | > 100 µM | > 100 µM | > 100 µM | > 100 µM | > 100 µM | > 100 µM
3 | O=C(N/N=C/c1ccc(Cl)cc1Cl)c1ccc2nc(-c3ccc(Cl)cc3)[nH]c2c1 | 1.97 µM | 5.47 µM | 1.82 µM | 3.68 µM | 1.79 µM | 3.83 µM | 1.59 µM | 3.62 µM | 1.81 µM | 3.39 µM | 1.93 µM | 4.43 µM | 1.65 µM | 3.84 µM | 1.15 µM | 2.56 µM | 1.55 µM | 3.25 µM | 1.85 µM | 6.53 µM
4 | Clc1cc(-c2ccccc2)nc2ccccc12 |  | > 100 µM |  | > 100 µM |  | > 100 µM |  | 83.5 µM |  | 33 µM |  | > 100 µM |  | > 100 µM |  | > 100 µM |  | 37.5 µM |  | 53.3 µM
5 | Clc1ccc(CNc2nccc(-c3cnn4ncccc34)n2)cc1 | 6.46 µM | 21.1 µM | 5.54 µM | > 19.9 µM | 5.26 µM | > 25 µM | 6.28 µM | 12.8 µM | 5.4 µM | > 25 µM | 6.74 µM | 22.8 µM | 7.09 µM | > 17 µM | 5.91 µM | > 25 µM | 4.86 µM | 9.76 µM | 8.69 µM | > 22.3 µM
6 | O=C1c2ccccc2-c2c1c1ccc([N+](=O)[O-])cc1c(=O)n2CCCNCCO | 0.053 µM | 0.82 µM |  | > 21 µM | 0.042 µM | 1.71 µM | 0.372 µM | 1.34 µM | 0.0875 µM | 0.349 µM | 0.115 µM | 0.713 µM | 0.0904 µM | 1.4 µM |  | 1.31 µM | 1.05 µM | 2.81 µM | 0.242 µM | 1.52 µM
7 | Cc1nc2c(N3CCCC3)nc(N3CCNCC3)nc2nc1NCc1ccccc1 | 1.95 µM | 8.36 µM and 11.7 µM | 5.46 µM | 10.6 µM and 20.8 µM | 3.23 µM | 13.8 µM and 4.96 µM | 1.85 µM | 4.11 µM and 4.69 µM | 4.94 µM | 9.98 µM and 3.06 µM | 6.77 µM | 12.7 µM and 23.7 µM | 2.64 µM | 9.12 µM and 3.53 µM | 5.99 µM | 13.3 µM and 5.92 µM | 1.77 µM | 7.59 µM and 3.32 µM | 4.71 µM | 13.2 µM and 11.8 µM
8 | Nc1nccc2c1ncn2C1OC(CO)C(O)C1O (stereo not given) | > 100 µM | > 100 µM | > 100 µM | > 100 µM | > 100 µM | > 100 µM | > 100 µM | > 100 µM | > 100 µM | > 100 µM | > 100 µM | > 100 µM | > 100 µM | > 100 µM | 52 µM | > 100 µM | > 100 µM | > 100 µM | > 100 µM | > 100 µM
9 | Cc1ncc(C(=O)Nc2ccc(CN3CCN(C)CC3)c(C(F)(F)F)c2)cc1C#Cc1c(N)ncc2ccccc12 | 0.0978 µM | 0.585 µM | 0.458 µM | 0.906 µM | 1.96 µM | 7.7 µM | 0.458 µM | 0.975 µM | 0.446 µM | 0.878 µM | 0.439 µM | 1.02 µM | 0.0923 µM | 0.476 µM | 0.378 µM | 0.913 µM | 0.131 µM | 0.619 µM | 0.247 µM | 0.817 µM
10 | Cc1cnccc1N=Nc1ccc(N(C)C)cc1 |  | 53.9 µM |  | 32.9 µM |  | > 100 µM |  | 46.2 µM |  | 29.5 µM |  | 68.6 µM |  | > 100 µM |  | 35 µM |  | 26.1 µM |  | > 100 µM
11 | Nc1ccc(C(OC(=O)c2cc3ccccc3c(Cc3c(O)c(C(=O)OC(c4ccc(N)cc4)(c4ccc(N)cc4)c4ccc(N)cc4)cc4ccccc34)c2O)(c2ccc(N)cc2)c2ccc(N)cc2)cc1 | 1.79 µM | 11.6 µM | 2.37 µM | > 100 µM | 0.405 µM | 18.9 µM | 0.497 µM | 11.7 µM | 0.455 µM | 2.3 µM | 0.645 µM | 17.3 µM | 0.993 µM | 19.1 µM | 0.623 µM | 12.4 µM | 1.21 µM | 3.15 µM | 4.04 µM | 23.3 µM
12 | O=C(COc1cccc(/C=C2\Oc3ccc4ccccc4c3C2=O)c1)c1ccc(Cl)cc1 | > 100 µM | > 100 µM | > 100 µM | > 100 µM | 15.3 µM | 52.4 µM | 29.4 µM | 99.4 µM | 79.2 µM | > 100 µM | 30.5 µM | > 100 µM | 18.1 µM | 43 µM | 10.7 µM | 22.6 µM | 33.6 µM | > 100 µM | 16.1 µM | 90.9 µM
13 | CN(CC(=O)O)Cc1oc(CO)cc(=O)c1O |  | > 100 µM |  | > 100 µM |  | > 100 µM |  | > 100 µM |  | > 100 µM |  | > 100 µM |  | > 100 µM |  | > 100 µM |  | > 100 µM |  | 76.5 µM
14 | COC(=O)[C@]12CC[C@@H](C)[C@H](C)[C@@H]1C1=CC[C@@H]3[C@@]4(C)C(C=O)=C[C@@](C)(COS(C)(=O)=O)C4[C@H](O)C[C@@]3(C)[C@]1(C)CC2 (stereo not given in full) | 1.64 µM | 3.5 µM | 2.14 µM | 6.28 µM | 1.8 µM | 5.93 µM | 1.51 µM | 8.86 µM | 1.7 µM | 3.26 µM | 1.68 µM | 3.63 µM | 1.68 µM | 4.5 µM | 1.19 µM | 3.63 µM | 1.85 µM | 3.93 µM | 1.17 µM | 4.24 µM
15 | Cc1ccc2nc(-c3ccc(N)c4ccccc34)[nH]c2c1 | 0.361 µM |  | 0.185 µM | > 71.5 µM | 9.1 µM | > 100 µM | 1.38 µM |  |  | 1.73 µM | 0.159 µM | 23.9 µM | 0.054 µM | 0.427 µM | 2.68 µM | > 100 µM | 1.07 µM | 6.31 µM | 0.102 µM | 3.29 µM
16 | CCN(CC)CCn1c2ccc(OC)cc2c2sc3cc(OC)ccc3c(=O)c21 | 1.51 µM | 9.12 µM | 1.6 µM | 3.36 µM | 2 µM | 4.89 µM | 1.11 µM | 6.48 µM | 1.74 µM | 3.12 µM | 1.9 µM | 4.34 µM | 1.64 µM | 3.08 µM | 1.16 µM | 2.45 µM | 1.39 µM | 3.32 µM | 1.77 µM | 4.22 µM
17 | OCC(CCc1c[nH]c2ccccc12)c1c[nH]c2ccccc12 (stereo not given) |  | 30.7 µM |  | 30.3 µM |  | 35.6 µM |  | 45.7 µM |  | 30.4 µM |  | 30 µM |  | 28.6 µM |  | 35 µM |  | 30.6 µM |  | 26.6 µM
18 | COC(=O)[C@H](C)NC(=O)[C@@H](OC)[C@@H]1Cc2cc3cc(OC4CC(OC5CC(O)C(O)C(C)O5)C(O)C(C)O4)c(C)c(O)c3c(O)c2C(=O)[C@H]1OC1CC(OC2CC(OC3CC(C)(O)C(O)C(C)O3)C(O)C(C)O2)C(O)C(C)O1 (stereo not given in full) | 0.117 µM | > 50 µM | 0.174 µM | 35.5 µM | 0.143 µM | > 50 µM | 0.0911 µM | 0.774 µM | 0.0358 µM | 0.355 µM | 0.0939 µM | > 50 µM | 0.113 µM | 1.41 µM | 0.0236 µM | > 50 µM | 0.0934 µM | 1.09 µM | 0.894 µM | 10.6 µM
19 | COc1ccc(-c2cc(-c3cccc(NS(C)(=O)=O)c3)nc(N)c2C#N)cc1 | 0.0382 µM | 0.731 µM | 0.525 µM | > 81.6 µM | 0.362 µM | 13.7 µM | 0.0316 µM | 0.769 µM | 0.113 µM | 4.92 µM | 0.256 µM | 39.8 µM | 0.0808 µM | 10.7 µM | 0.348 µM | 25.3 µM | 0.0747 µM | 0.607 µM | 0.0637 µM | 1.26 µM
